Data: patent publication US20250327074A1 (SHAOXING INSTITUTE, ZHEJIANG UNIVERSITY, priority 2024, published 2025)

System: TCG codon, mammalian cells
Assay: TCG codon recoding efficiency of all amino acids (Table 1)
Format: cell-based
Details: TCG codon recoding of the unnatural amino acid with the aaRS and mutation of the same table line
Text: Specific details are shown in Table 1 below, where “wt” represents the wild-type aminoacyl-tRNA synthetase, “mutation sites” indicate the positions and types of mutations related to specific unnatural amino acid binding on the wild-type aminoacyl-tRNA synthetase, and “unnatural amino acid” represents the unnatural amino acid corresponding to the mutated aminoacyl-tRNA synthetase. In the unnatural amino acid encoding efficiency, “+” indicates a recoding efficiency greater than 40%, “++” greater than 60%, and “+++” greater than 80%.
Accordingly, this application compiles all amino acids reported in the literature that are recognized by orthogonal aminoacyl-tRNA synthetases in mammalian systems and evaluates their recoding efficiency using the TCG codon as an example.

Row | SMILES | Recoding rate (%) (numeric values) | Recoding rate (%) (class symbols)
1 | COc1ccc2c(C[C@H](N)C(=O)O)c[nH]c2c1 [compound 294] | 63 | 
2 | Cc1ccc2c(C[C@H](N)C(=O)O)c[nH]c2c1C [compound 295] |  | +++ (“+++” greater than 80%)
3 | COc1ccc2c(C[C@H](N)C(=O)O)c[nH]c2c1OC [compound 296] |  | +++ (“+++” greater than 80%)
4 | N[C@@H](Cc1ccc(I)cc1)C(=O)O [compound 297] | 43 | 
5 | [N-]=[N+]=Nc1ccc(C[C@H](N)C(=O)O)cc1 [compound 298] | 88 | 
6 | N[C@@H](Cc1csc2ccccc12)C(=O)O [compound 299] | 84 | 
7 | Cc1cccc2c(C[C@H](N)C(=O)O)c[nH]c12 [compound 300] | 69 | 
8 | N[C@@H](Cc1c[nH]c2c(Cl)cccc12)C(=O)O [compound 301] | 71 | 
9 | N#Cc1cccc2c(C[C@H](N)C(=O)O)c[nH]c12 [compound 302] | 69 | 
10 | COc1cccc2c(C[C@H](N)C(=O)O)c[nH]c12 [compound 303] |  | +++ (“+++” greater than 80%)
11 | N[C@@H](Cc1ccc(C#CCCC2CCCC2)cc1)C(=O)O [compound 304] |  | ++ (“++” greater than 60%)
12 | CC(=O)c1ccc(C[C@H](N)C(=O)O)cc1 [compound 305] | 92 | 
13 | N#Cc1cccc(C[C@H](N)C(=O)O)c1 [compound 306] | 75 | 
14 | N[C@@H](Cc1ccc2ccccc2c1)C(=O)O [compound 307] | 66 | 
15 | COc1ccc(C[C@H](N)C(=O)O)cc1 [compound 308] | 68 | 
16 | Cn1cc(C[C@H](N)C(=O)O)c2ccccc21 [compound 309] | 63 | 
17 | CCCCC#Cc1ccc(C[C@H](N)C(=O)O)cc1 [compound 310] |  | +++ (“+++” greater than 80%)
18 | CCCCCC#Cc1ccc(C[C@H](N)C(=O)O)cc1 [compound 311] |  | +++ (“+++” greater than 80%)
19 | CCCCCCC#Cc1ccc(C[C@H](N)C(=O)O)cc1 [compound 312] |  | ++ (“++” greater than 60%)
20 | CCCCCCCC#Cc1ccc(C[C@H](N)C(=O)O)cc1 [compound 313] |  | + (“+” indicates a recoding efficiency greater than 40%)
21 | CCCCC=Cc1ccc(C[C@H](N)C(=O)O)cc1 [compound 314] |  | ++ (“++” greater than 60%)

Row | SMILES | Recoding rate (%) (numeric values) | Recoding rate (%) (class symbols)
22 | CCCCC=Cc1ccc(C[C@H](N)C(=O)O)cc1 [compound 315] |  | +++ (“+++” greater than 80%)
23 | N[C@@H](Cc1ccc(C#CCCCBr)cc1)C(=O)O [compound 316] |  | ++ (“++” greater than 60%)
24 | N[C@@H](Cc1ccc(C#CCCCCCBr)cc1)C(=O)O [compound 317] |  | + (“+” indicates a recoding efficiency greater than 40%)
25 | N[C@@H](Cc1ccc(C#CCc2ccccc2)cc1)C(=O)O [compound 318] |  | +++ (“+++” greater than 80%)
26 | N[C@@H](Cc1ccc(C#CCCCc2ccccc2)cc1)C(=O)O [compound 320] |  | ++ (“++” greater than 60%)
27 | N[C@@H](Cc1ccc(C=CCCc2ccc3ccccc3c2)cc1)C(=O)O [compound 321] |  | ++ (“++” greater than 60%)
28 | N[C@@H](Cc1ccc(C=CCCc2ccc3c(c2)CCC3)cc1)C(=O)O [compound 322] |  | ++ (“++” greater than 60%)
29 | N[C@@H](Cc1ccc(O)c(O)c1)C(=O)O [compound 323] | 48 | 
30 | C#Cc1cc(C[C@H](N)C(=O)O)ccc1OS(=O)(=O)F [compound 324] |  | ++ (“++” greater than 60%)
31 | C=Cn1cc(C[C@H](N)C(=O)O)c2ccccc21 [compound 325] | 59 | 
32 | C#CCn1cc(C[C@H](N)C(=O)O)c2ccccc21 [compound 326] |  | ++ (“++” greater than 60%)
33 | COc1ccc2c(C[C@H](N)C(=O)O)c[nH]c2c1 [compound 327] | 80 | 
34 | N[C@@H](Cc1ccc(Br)cc1)C(=O)O [compound 328] | 51 | 
35 | N[C@@H](Cc1cccc(I)c1)C(=O)O [compound 329] | 56 | 
36 | N#Cc1ccc(C[C@H](N)C(=O)O)cc1 [compound 330] | 45 | 
37 | N[C@@H](Cc1ccc(I)cc1)C(=O)O [compound 331] | 43 | 
38 | COc1ccc(C[C@H](N)C(=O)O)cc1 [compound 332] | 73 | 
39 | N[C@@H](Cc1ccc(O)c(I)c1)C(=O)O [compound 334] |  | +++ (“+++” greater than 80%)
40 | N[C@@H](Cc1ccc(OS(=O)(=O)O)cc1)C(=O)O [compound 335] | 85 | 
41 | N[C@@H](Cc1ccc(OCCBr)cc1)C(=O)O [compound 337] | 60 | 
42 | N[C@@H](Cc1ccc(C(=O)CF)cc1)C(=O)O [compound 338] |  | ++ (“++” greater than 60%)

Row | SMILES | Recoding rate (%) (numeric values) | Recoding rate (%) (class symbols)
43 | N[C@@H](Cc1ccc(C(=O)c2ccccc2)cc1)C(=O)O [compound 339] | 68 | 
44 | N[C@@H](Cc1ccc(C(=O)c2cccc(F)c2)cc1)C(=O)O [compound 340] |  | ++ (“++” greater than 60%)
45 | N[C@@H](Cc1ccc(C(=O)c2cccc(Cl)c2)cc1)C(=O)O [compound 341] |  | ++ (“++” greater than 60%)
46 | N[C@@H](Cc1ccc(C(=O)c2ccc(F)cc2)cc1)C(=O)O [compound 342] |  | ++ (“++” greater than 60%)
47 | N[C@@H](Cc1ccc(C(=O)c2ccc(Cl)cc2)cc1)C(=O)O [compound 343] |  | ++ (“++” greater than 60%)
48 | N[C@@H](Cc1ccc(C(=O)c2ccc(Br)cc2)cc1)C(=O)O [compound 344] |  | ++ (“++” greater than 60%)
49 | N[C@@H](Cc1ccc(C(=O)c2ccc(C(F)(F)F)cc2)cc1)C(=O)O [compound 345] |  | ++ (“++” greater than 60%)
50 | N[C@@H](Cc1ccc(C(=O)c2ccccc2)cc1)C(=O)O [compound 346] | 74 | 
51 | N[C@@H](CCc1cc(=O)oc2cc(O)ccc12)C(=O)O [compound 347] |  | ++ (“++” greater than 60%)
52 | [N-]=[N+]=NCCOc1ccc(C[C@H](N)C(=O)O)cc1 [compound 348] |  | ++ (“++” greater than 60%)
53 | [N-]=[N+]=NCC(=O)Nc1ccc(C[C@H](N)C(=O)O)cc1 [compound 349] | 84 | 
54 | [N-]=[N+]=NCCC(=O)Nc1ccc(C[C@H](N)C(=O)O)cc1 [compound 350] |  | +++ (“+++” greater than 80%)
55 | C#CCCC(=O)Nc1ccc(C[C@H](N)C(=O)O)cc1 [compound 351] |  | +++ (“+++” greater than 80%)
56 | C#CCC(=O)Nc1ccc(C[C@H](N)C(=O)O)cc1 [compound 352] |  | +++ (“+++” greater than 80%)
57 | C=CCCC(=O)Nc1ccc(C[C@H](N)C(=O)O)cc1 [compound 353] |  | +++ (“+++” greater than 80%)
58 | C=CCC(=O)Nc1ccc(C[C@H](N)C(=O)O)cc1 [compound 354] |  | +++ (“+++” greater than 80%)
59 | N[C@@H](Cc1ccc(NC(=O)CF)cc1)C(=O)O [compound 355] |  | +++ (“+++” greater than 80%)
60 | N[C@@H](Cc1ccc(NC(=O)CCl)cc1)C(=O)O [compound 356] |  | +++ (“+++” greater than 80%)
61 | N[C@@H](Cc1ccc(CC(=O)O)cc1)C(=O)O [compound 357] |  | ++ (“++” greater than 60%)
62 | N[C@@H](Cc1ccc(C(=O)CF)cc1)C(=O)O [compound 358] |  | +++ (“+++” greater than 80%)
63 | CC(=O)c1ccc(C[C@H](N)C(=O)O)cc1 [compound 359] | 78 | 

Row | SMILES | Recoding rate (%) (numeric values) | Recoding rate (%) (class symbols)
64 | [N-]=[N+]=Nc1ccc(C[C@H](N)C(=O)O)cc1 [compound 360] | 79 | 
65 | Nc1cc(C[C@H](N)C(=O)O)ccc1O [compound 361] | 50 | 
66 | N[C@@H](Cc1ccc(B(O)O)cc1)C(=O)O [compound 362] | 66 | 
67 | C#CCOc1ccc(C[C@H](N)C(=O)O)cc1 [compound 363] | 78 | 
68 | N[C@@H](Cc1ccc(OCCCl)cc1)C(=O)O [compound 364] |  | ++ (“++” greater than 60%)
69 | COc1ccc(C[C@H](N)C(=O)O)cc1 [compound 365] | 89 | 
70 | N[C@@H](Cc1ccc(Br)cc1)C(=O)O [compound 366] | 63 | 
71 | N[C@@H](Cc1ccc([N+](=O)[O-])cc1)C(=O)O [compound 367] |  | +++ (“+++” greater than 80%)
72 | N#Cc1ccc(C[C@H](N)C(=O)O)cc1 [compound 368] |  | +++ (“+++” greater than 80%)
73 | COc1ccc(C[C@H](N)C(=O)O)cc1 [compound 369] | 84 | 
74 | N[C@@H](Cc1ccc(I)cc1)C(=O)O [compound 370] | 64 | 
75 | N[C@@H](Cc1ccc(O)c(I)c1)C(=O)O [compound 371] | 73 | 
76 | N[C@@H](Cc1ccc(OS(=O)(=O)F)cc1)C(=O)O [compound 372] | 70 | 
77 | N[C@@H](Cc1ccc(OS(=O)(=O)F)cc1)C(=O)O [compound 373] | 68 | 
78 | COc1ccc([N+](=O)[O-])c2c1CCN2C(=O)CC[C@H](N)C(=O)O [compound 374] | 43 | 
79 | N[C@@H](CCCNC(=O)NCc1ccccc1[N+](=O)[O-])C(=O)O [compound 375] |  | ++ (“++” greater than 60%)
80 | CCCCCC[C@H](N)C(=O)O [compound 376] |  | ++ (“++” greater than 60%)
81 | CC(=O)CCCSC[C@H](N)C(=O)O [compound 377] |  | ++ (“++” greater than 60%)
82 | C=CCCCCSC[C@H](N)C(=O)O [compound 378] |  | ++ (“++” greater than 60%)
83 | CCCCCCSC[C@H](N)C(=O)O [compound 379] |  | ++ (“++” greater than 60%)
